In PMC8850458, “The AUTOTAC chemical biology platform for targeted protein degradation via the autophagy-lysosome system” (Nature Communications, 2022):
Values joined by “and” are separate entries in the source; they are usually repeats but may differ in a detail not shown here. Identical values can stand only once. Like-named read-outs stand apart in the source and are kept apart here.

Key:
[1] = system: VCaP cells; design: method as in printed; conditions: reviewer comment, ref not given; cited from earlier work
[2] = system: U87-MG glioblastoma cells; assay: Wound healing assay in U87-MG cells; format: cell-based; conditions: as early as 4 h and up to 24 h post-scratch
Description: To analyze cell migration in two dimensions, U-87 MG or ACHN cells were plated to a monolayer. Cells were scratched with a sterile 10 μl pipette tip and the debris was removed using medium. Cells were treated with compounds and incubated for different time to monitor cell behavior. Photographs were obtained using a microscope at different time point.

[3] = system: HeLa cells; assay: Flow cytometry (propidium iodide, sub-G1); format: cell-based; conditions: 1 µM, 48 h
Description: Cell death and cell cycle arrest were quantified by staining cells with propidium iodide for flow cytometry with a BD FACSCalibur (BD Biosciences) according to the manufacturer’s instructions. […] Cells were collected by centrifugation and fixed in 70% ethanol at 4 °C for 24 h. Cells were washed with PBS and stained with propidium iodide (10 µg/mL) with RNAse treatment at 37 °C for 30 min. DNA content at each cell cycle checkpoint was measured and analyzed using BD CellQuest Pro (BD Biosciences) and ModFit LT Systems (Verity Software House).

[4] = biological target: T1, methionine aminopeptidase 2 (MetAP2) (Homo sapiens, UniProt P50579); assay: Western blot degradation of MetAP2; format: cell-based; conditions: for DC50: read-out: DC50 for MetAP2
T1 construct: Targeted autophagic degradation of endogenous oncoproteins by AUTOTAC; endogenous in cells; host or cells: HEK293 / HEK293T, U87-MG
Description: Adherent cells were washed with phosphate-buffered saline (PBS) and cell pellets were lysed in SDS-based sample buffer (277.8 mM Tris-HCI, pH 6.8, 4.4% LDS, 44.4% (v/v) glycerol) containing beta-mercaptoethanol. Alternatively, cell pellets or protein supernatants were lysed in 5X Laemmli sample buffer. Whole-cell lysates were separated using SDS-PAGE, and transferred onto polyvinyllidene difluoride membranes at 100 V for 2 h at 4 °C. The membrane was incubated with a blocking solution consisting 4% skim milk in PBS solution for 30 min at room temperature and incubated with primary antibodies overnight, followed by incubation with host-specific HRP-conjugated secondary antibodies (1:10000 dilution). For signal detection, the membrane was developed with a mixture of ECL solution (Thermo Fisher Scientific) using X-ray films. Densitometry of developed bands was measured and analyzed with ImageJ (NIH, Bethesda).

[5] = biological target: T2, NBR1 (Homo sapiens, UniProt Q14596); assay: Competition pulldown assay with biotinylated YOK-2204 (NBR1); format: binding; conditions: HEK293T
T2 construct: pulldown assay in HEK293T cells using biotinylated YOK-2204; endogenous in cells; host or cells: HEK293T cell extract
Description: (§1) A set of synthetic 12-mer peptides corresponding to the N-terminal sequences of the V-BiP (V[19]-[…]-biotin) and V-RGS4 (V^2-[…]-biotin) was C-terminally biotin-conjugated. Alternatively, biotinylated versions of YOK-1304, YT-8-8, YTK-1105, YOK-2204, and PBA were synthesized. To cross-link the above peptides with resin beads, biotin-conjugated peptides, and small molecule were mixed with high-capacity streptavidin agarose resin (Thermo Fisher Scientific) at a ratio of 0.5 mg of peptide per 1 mL of settled resin and incubated on a rotator at 4 °C overnight. After washing five times with PBS, the peptide/small molecule-bead conjugates were diluted with PBS at a 1:1 ratio. To prepare protein extracts, cells were collected by centrifugation and lysed by freezing and thawing at least 10 times in hypotonic buffer [10 mM KCl, 1.5 mM MgCl2, and 10 mM HEPES (pH 7.9)] with a protease inhibitor mix (Sigma). After centrifugation at 15,000 rpm 4 °C for 15 min, proteins were quantified using a BCA protein assay kit (Thermo Fisher Scientific). Total protein (200 μg) diluted in 300 μL of binding buffer [0.05% Tween-20, 10% glycerol, 0.2 M KCl, and 20 mM HEPES (pH 7.9)] were mixed with 50 μL of peptide/small molecule-bead resin and incubated at 4 °C for 2 h on a rotator. The protein-bound beads were collected by centrifugation at 2400 × g for 3 min and washed five times with binding buffer. […]

[6] = biological target: T3, mutant p62^D129A (Homo sapiens, UniProt Q13501, D129A); assay: Pulldown assay with biotinylated YOK-2204, wild-type or D129A p62-myc; format: binding; conditions: HEK293T
T3 construct: expressed in transfected cells; host or cells: HEK293T, transient; cell extract used
Description: as §1

[7] = system: p62 and LC3 punctate structures; assay: ICC of p62 and LC3 puncta formation and co-localization in HeLa cells; format: cell-based; conditions: 2.5 μM, 24 h
Description: Cells were cultured on coverslips coated with poly-L-lysine (Sigma) to observe cellular localization of proteins. Using 4% paraformaldehyde in PBS (pH 7.4), the cells were fixed for 15 min at room temperature and washed three times for 5 min with PBS. After fixing, the cells were permeabilized with 0.5% Triton X-100 in PBS solution for 15 min and washed three times with PBS for 5 min. The cells were blocked containing 2% BSA in PBS solution for 1 h at room temperature. Subsequently, the cells were incubated with primary antibody diluted in 2% BSA/PBS solution overnight at 4 °C, followed by washing the cells three times for 10 min with PBS and incubated with Alexa Fluor-conjugated secondary antibody diluted in 2% BSA/PBS for 30 min at room temperature. Using a DAPI-containing mounting medium (Vector Laboratories), the coverslips were mounted on glass slides. Confocal images were taken by laser scanning confocal microscope 510 Meta (Zeiss) and analyzed by Zeiss LSM Image Browser (ver. 4.2.0.121). […] Quantification results are shown as mean ± S.D. or S.E.M. of three independent experiments

[8] = biological target: T4, p62 (Homo sapiens, UniProt Q13501); assay: In vitro pulldown assay with biotinylated p62 ligands; format: binding; conditions: biotinylated ligand, HEK293T extracts
T4 construct: expressed in transfected cells; host or cells: HEK293T, transient; whole lysate used
Description: A set of synthetic 12-mer peptides corresponding to the N-terminal sequences of the V-BiP (V[19]-[…]-biotin) and V-RGS4 (V^2-[…]-biotin) was C-terminally biotin-conjugated. Alternatively, biotinylated versions of YOK-1304, YT-8-8, YTK-1105, YOK-2204, and PBA were synthesized. To cross-link the above peptides with resin beads, biotin-conjugated peptides, and small molecule were mixed with high-capacity streptavidin agarose resin (Thermo Fisher Scientific) at a ratio of 0.5 mg of peptide per 1 mL of settled resin and incubated on a rotator at 4 °C overnight. After washing five times with PBS, the peptide/small molecule-bead conjugates were diluted with PBS at a 1:1 ratio. To prepare protein extracts, cells were collected by centrifugation and lysed by freezing and thawing at least 10 times in hypotonic buffer [10 mM KCl, 1.5 mM MgCl2, and 10 mM HEPES (pH 7.9)] with a protease inhibitor mix (Sigma). After centrifugation at 15,000 rpm 4 °C for 15 min, proteins were quantified using a BCA protein assay kit (Thermo Fisher Scientific). Total protein (200 μg) diluted in 300 μL of binding buffer [0.05% Tween-20, 10% glycerol, 0.2 M KCl, and 20 mM HEPES (pH 7.9)] were mixed with 50 μL of peptide/small molecule-bead resin and incubated at 4 °C for 2 h on a rotator. The protein-bound beads were collected by centrifugation at 2400 × g for 3 min and washed five times with binding buffer. The beads were resuspended in 25 μL of SDS sample buffer, heated at 95 °C for 5 min, and subjected to SDS/PAGE and immunoblotting.

[9] = system: LNCaP cells; assay: WST-based cell viability assay in LNCaP cells; conditions: LNcaP, duplicates
[10] = WST-based cell viability assay in LNCaP cells; conditions: human, LNCaP cells
[11] = system: E1; design: method as in printed; conditions: authors' reply, ref not given; cited from earlier work
[12] = WST assay viability relative to con = 100, LNcaP, duplicates
[13] = WST assay viability, AVG %, LNcaP

T1 sequence (P50579 whole entry): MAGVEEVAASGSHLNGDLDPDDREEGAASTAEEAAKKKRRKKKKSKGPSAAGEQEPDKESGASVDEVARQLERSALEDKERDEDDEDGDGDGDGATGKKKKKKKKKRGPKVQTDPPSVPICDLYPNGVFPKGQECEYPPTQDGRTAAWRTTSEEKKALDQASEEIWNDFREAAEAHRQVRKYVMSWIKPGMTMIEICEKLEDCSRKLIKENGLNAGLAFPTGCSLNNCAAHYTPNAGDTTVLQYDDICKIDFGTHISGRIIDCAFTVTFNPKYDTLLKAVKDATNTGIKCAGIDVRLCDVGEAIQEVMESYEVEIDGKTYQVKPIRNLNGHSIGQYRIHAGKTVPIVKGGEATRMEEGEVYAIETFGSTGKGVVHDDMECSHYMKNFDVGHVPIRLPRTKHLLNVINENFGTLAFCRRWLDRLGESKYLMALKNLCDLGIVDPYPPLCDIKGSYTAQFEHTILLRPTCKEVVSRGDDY
T2 sequence (Q14596 whole entry): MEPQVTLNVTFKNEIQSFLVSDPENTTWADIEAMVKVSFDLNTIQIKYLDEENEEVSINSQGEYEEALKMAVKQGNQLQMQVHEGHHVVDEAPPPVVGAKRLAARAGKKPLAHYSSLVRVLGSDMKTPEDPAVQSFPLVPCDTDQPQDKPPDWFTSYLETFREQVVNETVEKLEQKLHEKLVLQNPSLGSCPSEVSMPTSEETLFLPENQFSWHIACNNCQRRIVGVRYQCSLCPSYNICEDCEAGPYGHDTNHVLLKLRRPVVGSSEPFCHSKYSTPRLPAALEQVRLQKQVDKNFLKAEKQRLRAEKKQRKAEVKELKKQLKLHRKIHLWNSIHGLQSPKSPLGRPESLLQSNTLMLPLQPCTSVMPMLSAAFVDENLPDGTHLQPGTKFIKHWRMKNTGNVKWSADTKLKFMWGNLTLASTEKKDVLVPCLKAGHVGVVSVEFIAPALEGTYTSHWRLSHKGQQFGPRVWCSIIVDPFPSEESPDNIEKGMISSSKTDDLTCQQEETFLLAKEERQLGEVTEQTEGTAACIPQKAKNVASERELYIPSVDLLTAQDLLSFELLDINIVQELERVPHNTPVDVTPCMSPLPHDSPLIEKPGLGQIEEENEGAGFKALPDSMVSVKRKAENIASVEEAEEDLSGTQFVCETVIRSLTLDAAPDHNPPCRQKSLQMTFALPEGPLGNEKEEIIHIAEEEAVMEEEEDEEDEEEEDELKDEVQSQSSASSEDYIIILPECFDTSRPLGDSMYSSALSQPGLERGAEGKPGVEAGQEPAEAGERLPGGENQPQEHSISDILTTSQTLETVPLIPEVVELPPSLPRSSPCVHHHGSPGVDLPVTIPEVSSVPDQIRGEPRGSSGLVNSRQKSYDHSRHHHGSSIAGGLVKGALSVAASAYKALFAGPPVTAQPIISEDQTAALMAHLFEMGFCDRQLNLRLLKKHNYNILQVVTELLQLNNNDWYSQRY

## N#Cc1ccc(O[C@H]2CC[C@H](NC(=O)c3ccc(N4CCC(CN5CCN(c6cc7c(cc6F)C(=O)N(C6CCC(=O)NC6=O)C7=O)CC5)CC4)nn3)CC2)cc1Cl (stereo partly drawn) [ARV-110]
[1]
  IC50, proliferation assay: low nM range

## COC1C(OC(=O)C=CC=CC=CC=CC(=O)NCCOCCOCCNCc2cccc(OCc3ccccc3)c2)CCC2(CO2)C1C1(C)OC1CC=C(C)C (stereo not drawn) [Fumagillin-105]
[2]
  inhibition of migration: more efficiently inhibited the migration
[3]
  programmed cell death (sub-G1 subpopulation): induced programmed cell death
[4]; 293T, 24 h, 1nM
  MetAP2 normalized to control, AVG %: 99.8808%
[4]; 293T, 24 h, 10nM
  MetAP2 normalized to control, AVG %: 77.0205%
[4]; 293T, 24 h, 100nM
  MetAP2 normalized to control, AVG %: 98.7214%
[4]; 293T, 24 h, 1uM
  MetAP2 normalized to control, AVG %: 25.6004%
[4]; 293T, 24 h, 2.5uM
  MetAP2 normalized to control, AVG %: 44.4377%
[4]; 293T, 24 h, 5uM
  MetAP2 normalized to control, AVG %: 22.9281%
[4]; 293T, 24 h, 10uM
  MetAP2 normalized to control, AVG %: 19.1769%
[4]; HEK293 cells
  Dmax, 24 hr for MetAP2: 1 to 10 µM
[4]; HEK-293T, 24 h, 293T, 24 h, 1nM, single experiments, read-out: MetAP2 normalized to GAPDH and to control, percentage
  remaining activity at 0.001 µM: 98.3%
[4]; HEK-293T, 24 h, 293T, 24 h, 100nM, single experiments, read-out: MetAP2 normalized to GAPDH and to control, percentage
  remaining activity at 0.1 µM: 98%
[4]; HEK-293T, 24 h, 293T, 24 h, 1uM, single experiments, read-out: MetAP2 normalized to GAPDH and to control, percentage
  remaining activity at 1 µM: 19.3%
[4]; HEK-293T, 24 h, 293T, 24 h, 2.5uM, single experiments, read-out: MetAP2 normalized to GAPDH and to control, percentage
  remaining activity at 2.5 µM: 52.8%
[4]; U87-MG glioblastoma cells, 24 h
  DC50: ~500 nM
[4]; HEK293 cells (legend: HEK293T), 24 h
  DC50: ~700 nM and 701 nM

## CC(C)NCC(O)COc1ccc(OCCc2ccccc2)c(OCCc2ccccc2)c1 (stereo not drawn) [YOK-2204]
[5]
  interaction with NBR1: not NBR1
[6]
  interaction with mutant p62^D129A: severely crippled
[7]
  LC3 puncta formation, AVG of cells of 50: 44.6667
  LC3 puncta formation, percentage AVG: 89.3333%
  p62-LC3 colocalization, AVG of cells of 50: 37
  p62-LC3 colocalization, percentage AVG: 74%
  p62 puncta formation, AVG of cells of 50: 40.3333
  p62 puncta formation, percentage AVG: 80.6667%
[7]; single experiments
  LC3 puncta formation, cells of 50 cells counted: 47 and 46 and 41
  p62-LC3 colocalization, cells of 50 cells counted: 43 and 37 and 31
  p62 puncta formation, cells of 50 cells counted: 43 and 37 and 41
[8]
  binding of p62 in pulldown: bound
[9]; 0.01uM
  WST assay raw reading: 2.286 and 1.976
  WST assay viability relative to con = 100: 93.5242
[9]; 0.1uM
  WST assay raw reading: 2.213 and 1.938
  WST assay viability relative to con = 100: 91.6264
[9]; 1uM
  WST assay raw reading: 2.21 and 1.972
  WST assay viability relative to con = 100: 93.3245
[9]; 10uM
  WST assay raw reading: 2.305 and 2.064
  WST assay viability relative to con = 100: 97.9191
[9]; 50uM
  WST assay raw reading: 2.575 and 2.249
  WST assay viability relative to con = 100: 107.158
[9]; 100uM
  WST assay raw reading: 2.662 and 2.714
  WST assay viability relative to con = 100: 130.381
[10]; [12]
  viability at 0.01 µM: 109%
  viability at 0.1 µM: 105%
  viability at 1 µM: 105%
  viability at 10 µM: 110%
  viability at 50 µM: 123%
  viability at 100 µM: 128%
[10]; [13]
  viability at 0.01 µM: 101%
  viability at 0.1 µM: 98.5%
  viability at 1 µM: 99.3%
  viability at 10 µM: 104%
  viability at 50 µM: 115%
  viability at 100 µM: 129%

## CCOC(=O)c1ccc(N2NC(=O)/C(=C/c3ccc([N+](=O)[O-])o3)C2=O)cc1 [pyr41]
[11]
  IC50: < 10000 nM
